Experimental data reported in paper PMC2913153 (Journal of the American Chemical Society, 2010).

Legend:
FPR-negative U937 cells = assay: Chemotaxis of FPR-negative U937 cells; type: cell-based; details: result in words
FPR = details: compared with fMLF; result in words; ref [13]; cited from earlier work

N-formyl-norleucine-leucine-phenylalanine [Compound 1]
chemotactic activity in FPR-negative U937 cells (FPR-negative U937 cells): None of the compounds induce chemotactic activity | chemoattractant potency relative to fMLF (FPR): less potent than fMLF
